Assay results: publication PMC6979384, “Characterization of the plant homeodomain (PHD) reader family for their histone tail interactions” (Epigenetics & Chromatin, 2020)

Experiments:
Test in all cases: Histone peptide microarray
Type in all cases: binding, human
[1] = test system: KDM5B (1); details: histone peptide array, GST-tagged reader; arrays performed twice, n of 4
Summary of the method: (§1)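 GST-tagged PHD finger readers were expressed, purified and applied at 0.5 μM to a microarray of 293 synthetic histone peptides carrying single or combinatorial PTMs, using an optimized protocol. Binding signals are averages with standard deviation from 4 replicates.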

[2] = test system: DPF2 (PPC2W2); details: histone peptide array, GST-tagged reader; PPC2W2 = Dual PHD + C2W2-type Zn-finger; arrays performed twice, n of 4
Summary of the method: as §1

[3] = test system: KDM4C (TTP); details: histone peptide array, GST-tagged reader; TTP = Tandem Tudor domain + PHD; arrays performed twice, n of 4
Summary of the method: as §1

[4] = test system: MORC3 (CW); details: histone peptide array, GST-tagged reader; CW = CW-type Zn-finger; arrays performed twice, n of 4
Summary of the method: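 GST-tagged PHD readers, 0.5 μM, probed on a microarray of 293 synthetic histone peptides carrying single or combinatorial PTMs (optimized Petell protocol). Signals are averaged over 4 replicates and expressed as relative binding.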

[5] = test system: CHD5 (PCC); details: histone peptide array, GST-tagged reader; PCC = PHD + Dual Chromodomain; arrays performed twice, n of 4
Summary of the method: as §1

[6] = test system: ING1; details: histone peptide array, GST-tagged reader; arrays performed twice, n of 4
Summary of the method: as §1

[7] = test system: PHF23; details: histone peptide array, GST-tagged reader; arrays performed twice, n of 4
Summary of the method: as §1

[8] = test system: AIRE (PP); details: histone peptide array, GST-tagged reader; arrays performed twice, n of 4
Summary of the method: as §1

[9] = test system: KDM5A (1); details: histone peptide array, GST-tagged reader; arrays performed twice, n of 4
Summary of the method: as §1

[10] = test system: PHRF1 (RP); details: histone peptide array, GST-tagged reader; arrays performed twice, n of 4
Summary of the method: as §1

[11] = test system: KDM5A (3); details: histone peptide array, GST-tagged reader; arrays performed twice, n of 4
Summary of the method: as §1

[12] = test system: PHF21A; details: histone peptide array, GST-tagged reader; arrays performed twice, n of 4
Summary of the method: as §1

[13] = test system: RAG2; details: histone peptide array, GST-tagged reader; arrays performed twice, n of 4
Summary of the method: as §1

[14] = test system: ING4; details: histone peptide array, GST-tagged reader; arrays performed twice, n of 4
Summary of the method: as §1

[15] = test system: ING5; details: histone peptide array, GST-tagged reader; arrays performed twice, n of 4
Summary of the method: as §1

[16] = test system: PHF8; details: histone peptide array, GST-tagged reader; arrays performed twice, n of 4
Summary of the method: as §1

[17] = test system: PHF2; details: histone peptide array, GST-tagged reader; arrays performed twice, n of 4
Summary of the method: as §1

[18] = test system: ING2; details: histone peptide array, GST-tagged reader; arrays performed twice, n of 4
Summary of the method: as §1

[19] = test system: ING3; details: histone peptide array, GST-tagged reader; arrays performed twice, n of 4
Summary of the method: as §1

[20] = test system: PHF13; details: histone peptide array, GST-tagged reader; arrays performed twice, n of 4
Summary of the method: as §1

[21] = test system: MLL5; details: histone peptide array, GST-tagged reader; arrays performed twice, n of 4
Summary of the method: as §1

[22] = test system: CHD5 (PPCC); details: histone peptide array, GST-tagged reader; PPCC = Dual PHD + Dual Chromodomain; arrays performed twice, n of 4
Summary of the method: as §1

[23] = test system: DIDO1; details: histone peptide array, GST-tagged reader; arrays performed twice, n of 4
Summary of the method: as §1

[24] = test system: BAZ2B; details: histone peptide array, GST-tagged reader; arrays performed twice, n of 4
Summary of the method: as §1

[25] = test system: BPTF (PB); details: histone peptide array, GST-tagged reader; PB = PHD + Bromodomain; arrays performed twice, n of 4
Summary of the method: as §1

[26] = test system: KDM7A; details: histone peptide array, GST-tagged reader; arrays performed twice, n of 4
Summary of the method: as §1

[27] = test system: KDM5B (3); details: histone peptide array, GST-tagged reader; arrays performed twice, n of 4
Summary of the method: as §1

[28] = test system: CHD4 (PPCC); details: histone peptide array, GST-tagged reader; PPCC = Dual PHD + Dual Chromodomain; arrays performed twice, n of 4
Summary of the method: as §1

[29] = test system: TRIM66 (PB); details: histone peptide array, GST-tagged reader; PB = PHD + Bromodomain; arrays performed twice, n of 4
Summary of the method: as §1

[30] = test system: TAF3; details: histone peptide array, GST-tagged reader; arrays performed twice, n of 4
Summary of the method: as §1

[31] = test system: SP140L; details: histone peptide array, GST-tagged reader; arrays performed twice, n of 4
Summary of the method: as §1

H3 (15-34)K27ac: H3 15-34
Array Heatmap signal, KDM5B (1) [1]: 0.6588
Array Heatmap signal, DPF2 (PPC2W2) [2]: 0.642
Array Heatmap signal, KDM4C (TTP) [3]: 0.5365
Array Heatmap signal, MORC3 (CW) [4]: 0.3756
Array Heatmap signal, CHD5 (PCC) [5]: 0.7622
Array Heatmap signal, ING1 [6]: 0.5528
Array Heatmap signal, PHF23 [7]: 0.5579
Array Heatmap signal, AIRE (PP) [8]: 0.5038
Array Heatmap signal, KDM5A (1) [9]: 0.5009
Array Heatmap signal, PHRF1 (RP) [10]: 0.4538
Array Heatmap signal, KDM5A (3) [11]: 0.4223
Array Heatmap signal, PHF21A [12]: 0.4777
Array Heatmap signal, RAG2 [13]: 0.2665
Array Heatmap signal, ING4 [14]: 0.4806
Array Heatmap signal, ING5 [15]: 0.3933
Array Heatmap signal, PHF8 [16]: 0.3727
Array Heatmap signal, PHF2 [17]: 0.4814
Array Heatmap signal, ING2 [18]: 0.5993
Array Heatmap signal, ING3 [19]: 0.5008
Array Heatmap signal, PHF13 [20]: 0.6352
Array Heatmap signal, MLL5 [21]: 0.5399
Array Heatmap signal, CHD5 (PPCC) [22]: 0.5983
Array Heatmap signal, DIDO1 [23]: 0.6571
Array Heatmap signal, BAZ2B [24]: 0.4845
Array Heatmap signal, BPTF (PB) [25]: 0.3592
Array Heatmap signal, KDM7A [26]: 0.3922
Array Heatmap signal, KDM5B (3) [27]: 0.4788
Array Heatmap signal, CHD4 (PPCC) [28]: 0.5674
Array Heatmap signal, TRIM66 (PB) [29]: 0.5567
Array Heatmap signal, TAF3 [30]: 0.268
Array Heatmap signal, SP140L [31]: 0.3795
